Results as given in US5488060A, “Substituted thiadiazoles, compositions containing them and their use as antimicrobial and marine antifouling agents” (The Dow Chemical Company, priority 1994, dated 1996).
Values after ≈ are worked out from the molar mass of the structure shown. Where two headings read alike, the source gives them in different places.

Tests used:
Format in all cases: cell-based
[1] = test system: Pseudomonas aeruginosa (Pa); experiment: Minimum inhibitory concentration (MIC) in nutrient agar, Pseudomonas aeruginosa; conditions: 30° C., 48 hours, read-out: Minimum Inhibitory Concentration, Pa
How it was run: (§1)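 MIC is determined by agar incorporation into neutral and alkaline nutrient agar, with compound at final 500 to 1.0 ppm added from a 1% acetone–water solution. Plates are inoculated with 10^8 CFU/mL cultures and read after 48 h at 30° C.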

Proteus vulgaris (Pv) = experiment: Minimum inhibitory concentration (MIC) in nutrient agar, Proteus vulgaris; conditions: 48 h
How it was run: as §1

Escherichia coli (Ec) = experiment: Minimum inhibitory concentration (MIC) in nutrient agar, Escherichia coli
How it was run: as §1

[2] = test system: Enterobacter aerogenes (Ea); experiment: Minimum inhibitory concentration (MIC) in nutrient agar, Enterobacter aerogenes; conditions: Klebsiella aerogenes, 48 h
How it was run: as §1

[3] = test system: Pseudomonas aeruginosa (PRD-10); experiment: Minimum inhibitory concentration (MIC) in nutrient agar, Pseudomonas aeruginosa PRD-10
How it was run: as §1

[4] = test system: Salmonella choleraesuis (Se); experiment: Minimum inhibitory concentration (MIC) in nutrient agar, Salmonella choleraesuis; conditions: Salmonella enterica
How it was run: as §1

Bacillus subtilis (Bs) = experiment: Minimum inhibitory concentration (MIC) in nutrient agar, Bacillus subtilis
How it was run: as §1

[5] = test system: Aureobasidium pullulan (Ap); experiment: Minimum inhibitory concentration (MIC) in malt yeast agar, Aureobasidium pullulan; conditions: pH 5.5; malt yeast agar, 30° C.; read-out: Minimum Inhibitory Concentration, Ap
How it was run: (§2)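 Growth is scored at 30 °C after 72 h for fungi and 48 h for yeast on malt yeast agar (pH 5.5) containing compound at final levels from 500 down to zero ppm. Organisms are grown 7 days at 30 °C, suspended in saline with octylphenoxy polyethoxy ethanol, and diluted 1:9 before replicator inoculation.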

Aspergillus niger (An) = experiment: Minimum inhibitory concentration (MIC) in malt yeast agar, Aspergillus niger
How it was run: as §2

[6] = test system: Saccharomyces cerevisiae (Sc); experiment: Minimum inhibitory concentration (MIC) in malt yeast agar, Saccharomyces cerevisiae; conditions: pH 5.5, malt yeast agar, 30° C., 48 hours for yeast, read-out: Minimum Inhibitory Concentration, SC
How it was run: as §2

Trichoderma viride (Tv) = experiment: Minimum inhibitory concentration (MIC) in malt yeast agar, Trichoderma viride; conditions: 72 h, pH 5.5, read-out: Minimum Inhibitory Concentration, Tv
How it was run: as §2

[7] = test system: Klebsiella pneumoniae (Kp); experiment: Minimum inhibitory concentration (MIC) in nutrient agar, Klebsiella pneumoniae
How it was run: as §1

Fusarium oxysporum (Fo) = experiment: Minimum inhibitory concentration (MIC) in malt yeast agar, Fusarium oxysporum; conditions: 72 h, pH 5.5, read-out: Minimum Inhibitory Concentration, Fo
How it was run: as §2

[8] = test system: Staphylococcus aureus (Sa); experiment: Minimum inhibitory concentration (MIC) in nutrient agar, Staphylococcus aureus
How it was run: as §1

[9] = test system: Penicillium chrysogenum (Pc); experiment: Minimum inhibitory concentration (MIC) in malt yeast agar, Penicillium chrysogenum; conditions: pH 5.5; malt yeast agar, 30° C., 72 hours for fungi; read-out: Minimum Inhibitory Concentration, PC
How it was run: as §2

Candida albicans (Ca) = experiment: Minimum inhibitory concentration (MIC) in malt yeast agar, Candida albicans; conditions: 48 h, pH 5.5, read-out: Minimum Inhibitory Concentration, Ca
How it was run: as §2

[10] = pH 6.8, read-out: Minimum Inhibitory Concentration, Pv
[11] = pH 8.2, read-out: Minimum Inhibitory Concentration, Pv
[12] = 48 h, pH 6.8, read-out: Minimum Inhibitory Concentration, Ec
[13] = pH 6.8, read-out: Minimum Inhibitory Concentration, Ea
[14] = pH 8.2, read-out: Minimum Inhibitory Concentration, Ea
[15] = 48 h, pH 8.2, read-out: Minimum Inhibitory Concentration, PRD
[16] = 48 h, pH 6.8, read-out: Minimum Inhibitory Concentration, SC
[17] = 48 h, pH 8.2, read-out: Minimum Inhibitory Concentration, Bs
[18] = pH 6.8, nutrient agar, 30° C., 48 hours, read-out: Minimum Inhibitory Concentration, Bs
[19] = 48 h, pH 8.2, read-out: Minimum Inhibitory Concentration, Kp
[20] = pH 6.8, nutrient agar, 30° C., 48 hours, read-out: Minimum Inhibitory Concentration, Kp
[21] = pH 6.8, nutrient agar, 30° C., 48 hours, read-out: Minimum Inhibitory Concentration, Sa
[22] = pH 8.2, nutrient agar, 30° C., 48 hours, read-out: Minimum Inhibitory Concentration, Sa
[23] = pH 8.2, nutrient agar, 30° C., 48 hours, read-out: Minimum Inhibitory Concentration, Ec
[24] = 48 h, pH 6.8, read-out: Minimum Inhibitory Concentration, PRD
[25] = 48 h, pH 8.2, read-out: Minimum Inhibitory Concentration, SC
[26] = 72 h, pH 5.5, read-out: Minimum Inhibitory Concentration, An

`Cc1ccc(-c2nsnc2SCSC#N)cc1` [Example XXVII, 4-(4-Methylphenyl)-3-thiocyanatomethylthio-1,2,5-thiadiazole] was tested, and the MIC ([1]; pH 6.8, nutrient agar) was 500 µg/mL (≈ 1790 µM), the MIC ([1]; pH 8.2, nutrient agar) was 500 µg/mL (≈ 1790 µM) and the MIC (Proteus vulgaris (Pv); [10]) was 500 µg/mL (≈ 1790 µM). It also gave an MIC (Proteus vulgaris (Pv); [11]) of 500 µg/mL (≈ 1790 µM), an MIC (Escherichia coli (Ec); [12]) of 500 µg/mL (≈ 1790 µM) and an MIC (Escherichia coli (Ec); 48 h, pH 8.2, read-out: Minimum Inhibitory Concentration, Ec) of 500 µg/mL (≈ 1790 µM). It also gave an MIC [2, 13] of 500 µg/mL (≈ 1790 µM), an MIC [2, 14] of 500 µg/mL (≈ 1790 µM) and an MIC [3, 15] of 500 µg/mL (≈ 1790 µM). It also gave an MIC ([3]; pH 6.8, nutrient agar, 30° C., 48 hours, read-out: Minimum Inhibitory Concentration, PRD) of 250 µg/mL (≈ 895 µM), an MIC [4, 16] of 500 µg/mL (≈ 1790 µM) and an MIC ([4]; pH 8.2, nutrient agar, 30° C., 48 hours, read-out: Minimum Inhibitory Concentration, SC) of 250 µg/mL (≈ 895 µM). The MIC (Bacillus subtilis (Bs); [17]) was 25 µg/mL (≈ 89.5 µM), the MIC (Bacillus subtilis (Bs); [18]) was 25 µg/mL (≈ 89.5 µM) and the MIC [5] was 9 µg/mL (≈ 32.2 µM). It also gave an MIC (Aspergillus niger (An); pH 5.5, malt yeast agar, 30° C., 72 hours for fungi, read-out: Minimum Inhibitory Concentration, An) of 9 µg/mL (≈ 32.2 µM), an MIC [6] of 9 µg/mL (≈ 32.2 µM) and an MIC (Trichoderma viride (Tv)) of 100 µg/mL (≈ 358 µM). For the same compound, the MIC [7, 19] was 500 µg/mL (≈ 1790 µM), the MIC [7, 20] was 500 µg/mL (≈ 1790 µM) and the MIC (Fusarium oxysporum (Fo)) was 25 µg/mL (≈ 89.5 µM). It also gave an MIC [8, 21] of 250 µg/mL (≈ 895 µM), an MIC [8, 22] of 25 µg/mL (≈ 89.5 µM) and an MIC [9] of 9 µg/mL (≈ 32.2 µM). The MIC (Candida albicans (Ca)) was 50 µg/mL (≈ 179 µM).

`N#CSCSc1nsnc1-c1cccs1` [Example XXX, 4-(2-Thiophene)-3-thiocyanatomethylthio-1,2,5-thiadiazole] was tested, and the MIC ([1]; pH 6.8, nutrient agar) was 500 µg/mL (≈ 1840 µM), the MIC ([1]; pH 8.2, nutrient agar) was greater than 500 µg/mL and the MIC (Proteus vulgaris (Pv); [10]) was 500 µg/mL (≈ 1840 µM). It also gave an MIC (Proteus vulgaris (Pv); [11]) greater than 500 µg/mL, an MIC (Escherichia coli (Ec); [12]) of 500 µg/mL (≈ 1840 µM) and an MIC (Escherichia coli (Ec); [23]) of 250 µg/mL (≈ 921 µM). For the same compound, the MIC [2, 13] was 500 µg/mL (≈ 1840 µM), the MIC [2, 14] was greater than 500 µg/mL and the MIC [3, 24] was 500 µg/mL (≈ 1840 µM). For the same compound, the MIC [3, 15] was greater than 500 µg/mL, the MIC [4, 16] was 500 µg/mL (≈ 1840 µM) and the MIC [4, 25] was greater than 500 µg/mL. It also gave an MIC (Bacillus subtilis (Bs); 48 h, pH 6.8, read-out: Minimum Inhibitory Concentration, Bs) of 500 µg/mL (≈ 1840 µM), an MIC (Bacillus subtilis (Bs); [17]) of 500 µg/mL (≈ 1840 µM) and an MIC [5] of 25 µg/mL (≈ 92.1 µM). It also gave an MIC (Aspergillus niger (An); [26]) of 50 µg/mL (≈ 184 µM), an MIC [6] of 9 µg/mL (≈ 33.2 µM) and an MIC (Trichoderma viride (Tv)) of 250 µg/mL (≈ 921 µM). For the same compound, the MIC [7, 19] was greater than 500 µg/mL, the MIC [7, 20] was 500 µg/mL (≈ 1840 µM) and the MIC (Fusarium oxysporum (Fo)) was 100 µg/mL (≈ 368 µM). It also gave an MIC ([8]; 48 h, pH 8.2, read-out: Minimum Inhibitory Concentration, Sa) greater than 500 µg/mL, an MIC [8, 21] of 500 µg/mL (≈ 1840 µM) and an MIC [9] of 9 µg/mL (≈ 33.2 µM). For the same compound, the MIC (Candida albicans (Ca)) was 100 µg/mL (≈ 368 µM).

Work on `N#CSCSc1nsnc1-c1cccnc1` [Example XXXI, 4-(3-Pyridyl)-3-thiocyanatomethylthio-1,2,5-thiadiazole] yielded an MIC ([1]; pH 6.8, nutrient agar) of 500 µg/mL (≈ 1880 µM), an MIC ([1]; pH 8.2, nutrient agar) greater than 500 µg/mL and an MIC (Proteus vulgaris (Pv); [10]) of 500 µg/mL (≈ 1880 µM). For the same compound, the MIC (Proteus vulgaris (Pv); [11]) was greater than 500 µg/mL, the MIC (Escherichia coli (Ec); [12]) was 500 µg/mL (≈ 1880 µM) and the MIC (Escherichia coli (Ec); [23]) was 250 µg/mL (≈ 939 µM). The MIC [2, 13] was 500 µg/mL (≈ 1880 µM), the MIC [2, 14] was greater than 500 µg/mL and the MIC [3, 24] was 500 µg/mL (≈ 1880 µM). For the same compound, the MIC [3, 15] was greater than 500 µg/mL, the MIC [4, 16] was 500 µg/mL (≈ 1880 µM) and the MIC [4, 25] was greater than 500 µg/mL. For the same compound, the MIC (Bacillus subtilis (Bs); [17]) was 25 µg/mL (≈ 93.9 µM), the MIC (Bacillus subtilis (Bs); [18]) was 50 µg/mL (≈ 188 µM) and the MIC [5] was 9 µg/mL (≈ 33.8 µM). For the same compound, the MIC (Aspergillus niger (An); [26]) was 25 µg/mL (≈ 93.9 µM), the MIC [6] was 9 µg/mL (≈ 33.8 µM) and the MIC (Trichoderma viride (Tv)) was 50 µg/mL (≈ 188 µM). The MIC [7, 19] was greater than 500 µg/mL, the MIC [7, 20] was 500 µg/mL (≈ 1880 µM) and the MIC (Fusarium oxysporum (Fo)) was 25 µg/mL (≈ 93.9 µM). For the same compound, the MIC [8, 21] was 100 µg/mL (≈ 375 µM), the MIC [8, 22] was 50 µg/mL (≈ 188 µM) and the MIC [9] was 9 µg/mL (≈ 33.8 µM). The MIC (Candida albicans (Ca)) was 25 µg/mL (≈ 93.9 µM).
